Patent publication US8741889B2, “Method of treating non-small cell lung cancer and colon cancer with gamma-secretase inhibitor” (Hoffmann-La Roche Inc, priority 2008, dated 2014)

Legend:
H460a NSCLC xenografts = experiment: Antitumor efficacy in H460a NSCLC xenografts in nude mice; type: in vivo
Procedure: Female nude mice (10/group), obtained from Charles River Laboratories (Wilmington, Mass.) were used when they were approximately 13-14 weeks old and weighed approximately 23-25 grams. The health of all animals was determined daily by gross observation of experimental animals and by the analyses of blood samples of sentinel animals that were housed on the shared shelf racks. All animals were allowed to acclimate and recover from any shipping related stress for a minimum of 72 hours prior to experimental use. Autoclaved water and irradiated food [5058-ms Pico chow (mouse) Purina, Richmond, Ind.] were provided ad libitum, and the animals were maintained on a 12-hour light and dark cycle. Cages, bedding and water bottles were autoclaved before use and were changed weekly. Lovo human colorectal, Calu-6 NSCLC, and HCT116 colorectal cells were purchased from ATCC (Manassas, Va.). […] NSCLC cells were a gift from Dr. Jack Roth, MD Anderson Medical Center, Houston, Tex. Lovo cells were cultured in F12K culture medium, Calu-6 and […] were grown in Dulbecco's Modified Essential Medium (DMEM), and HCT116 cells were grown in McCoy's 5A medium. All culture media were supplemented with 10% (v/v) FBS and 1% (v/v) […] L-glutamine. […] Mice implanted with Lovo and Calu-6 xenografts were randomized on day 19 post-implant, mice implanted with HCT116 xenografts were randomized on day 20, while mice implanted with […] xenografts were randomized on day 12 post implant. […] Treatment for the Lovo and Calu-6 tumor studies began on Oct. 11, 2006 (day 19 post tumor cell implant), for the HCT116 study began on Oct. 16, 2006 (day 20 post tumor cell implant), and for the […] study on Oct. 11, 2006 (12 days post tumor cell implant). […] For the Lovo and Calu-6 studies, 21 day dosing ended on day 40 post-tumor cell implant. For intermittent dosing, treatment ended on day 26, was reinitiated on day 40, and ended day 47. For the HCT116 study, 21 day dosing ended on day 42 post tumor cell implant. Intermittent dosing ended on day 27, was reinitiated on day 42, and ended day 49. For the […] study, 21 day dosing ended early on day 27 post tumor cell implant, whereas for intermittent dosing, treatment ended day 19, and was not reinitiated (due to lack of efficacy). Efficacy data was graphically represented as the mean tumor volume ±standard error of the mean (SEM). […] Statistical analysis was determined by the rank sum test and One Way Anova and a post-hoc Bonferroni t-test (SigmaStat, version 2.0, Jandel Scientific, San Francisco, Calif.). […]

[1] = tested on: BxPC3 pancreatic xenografts; experiment: Antitumor efficacy in BxPC3 pancreatic xenografts in SCID-beige mice; type: in vivo
Procedure: Female (athymic nu/nu) nude mice were obtained from Charles River Laboratories (Wilmington, Mass.), while female SCID-beige mice were purchased from Taconic (Germantown, N.Y.). Mice were used when they were approximately 8-12 weeks old (nudes) or 8-10 weeks old (SCID-beige), and weighed approximately 23-25 grams. The health of all animals was determined daily by gross observation of experimental animals and by the analyses of blood samples of sentinel animals that were housed on the shared shelf racks. All animals were allowed to acclimate and recover from any shipping related stress for a minimum of 72 hours prior to experimental use. Autoclaved water and irradiated food [5058-ms Pico chow (mouse) Purina, Richmond, Ind.] were provided ad libitum, and the animals were maintained on a 12 hour light and dark cycle. Cages, bedding and water bottles were autoclaved before use and were changed weekly. MiaPaca2, AsPC1 and BxPC3 human pancreatic carcinoma cells were purchased from ATCC (Manassas, Va.). BxPC3 and AsPC1 cells were grown in RPMI medium and MiaPaca2 cells were grown in Dulbecco's Modified Essential Medium (DMEM). All culture media were supplemented with 10% (v/v) FBS and 1% (v/v) […]. […] SCID-biege mice were implanted se with 5×10^6 BxPC3 cells in a 1:1 mixture of matrigel:PBS in a volume of 0.2 ml per mouse in the right hind flank on May 22, 2007. […] Formulated compound and vehicle were stored at 4° C. and prepared weekly. The suspension was mixed vigorously prior to administration. Gemcitabine (Gemzar®, Eli Lilly and Company, Indianapolis, Ind., USA) was reconstituted with sterile saline to yield a stock solution of 38 mg/ml for the entire 3-4 week study. […] Nude mice implanted with MiaPaca2 or AsPC1 xenografts were randomized on day 17 and day 9 post cell implant, respectively. SCID-beige mice bearing BxPC3 xenografts were randomized 8 days post implant. […] Treatment for the MiaPaca2 study began on Feb. […] For the MiaPaca2 and AsPC1 studies, qd Compound (1) suspension or q3d gemcitabine treatment ended on day 37 post tumor cell implant, whereas for the BxPC3 study, qd Compound (1) suspension or q3d gemcitabine treatment ended on day 35 post tumor cell implant. Efficacy data was graphically represented as the mean tumor volume+standard error of the mean (SEM). Tumor volumes of treated groups were presented as percentages of tumor volumes of the control groups (% T/C), using the formula: 100×((T−T0)/(C−C0)), where T represented mean tumor volume of a treated group on a specific day during the experiment, T0 represented mean tumor volume of the same treated group on the first day of treatment; C represented mean tumor volume of a control group on the specific day during the experiment, and C0 represented mean tumor volume of the same treated group on the first day of treatment. Tumor volume (in cubic millimeters) was calculated using the ellipsoid formula: (D×(d2))/2 where ‘D’ represents the large diameter of the tumor, and ‘d’ represents the small diameter. In some cases, tumor regression and/or percent change in tumor volume was calculated using the formula: ((T−T0)/T0)×100 where ‘T’ represents mean tumor volume of the treated group at a particular day, and ‘T0’ represents mean tumor volume of the same treated group at initiation of treatment. Statistical analysis was determined by the rank sum test and One Way Anova and a post-hoc Bonferroni t-test (SigmaStat, version 2.0, Jandel Scientific, San Francisco, Calif.). Differences between groups were considered to be significant when the probability value (p) was ≦0.05.

## CC(C)(C(=O)NCC(F)(F)C(F)(F)F)C(=O)N[C@@H]1C(=O)Nc2ccccc2-c2ccccc21 [Compound (1), 2,2-Dimethyl-N—((S)-6-oxo-6,7-dihydro-5H-dibenzo[b,d]azepin-7-yl)-N′-(2,2,3,3,3-pentafluoro-propyl)-malonamide]
H460a NSCLC xenografts; 3 mg/kg po qd, dosing ended early
  % TGI: 0%
H460a NSCLC xenografts; 10 mg/kg po qd, dosing ended early
  % TGI: 0%
H460a NSCLC xenografts; 30 mg/kg po qd × 7 days, not reinitiated
  % TGI: 0%
H460a NSCLC xenografts; 60 mg/kg po qd × 7 days, not reinitiated
  % TGI: 0%
[1]; 3 mg/kg po qd, day 35
  % TGI: 72%
[1]; 10 mg/kg po qd, day 35
  % TGI: 82%
[1]; 10 mg/kg po, 3+/4− schedule
  % TGI: 56%
[1]; 20 mg/kg po, 7+/7− schedule
  % TGI: 63%
[1]; 23 mg/kg po, 3+/4− schedule
  % TGI: 64%
[1]; 30 mg/kg po, 3+/4− schedule
  % TGI: 50%
